In assay [1] the test system is HeLa. The experiment in a line: Induction of apoptosis in human HeLa cells assessed as early apoptotic cells level at 50 nM incubated for 48 hrs by Annexin-V/FITC and propidium iodide staining based flow cytometry (reference value: 0.16%). The assay is classed as functional.
Assay [2] concerns HeLa. The experiment in a line: Induction of apoptosis in human HeLa cells assessed as viable cells level at 500 nM incubated for 72 hrs by Annexin-V/FITC and propidium iodide staining based flow cytometry (reference value: 99.72%). In kind it is functional. A general note: Flow cytometry measures light scatter and fluorescence of single cells or particles in a stream.
Another assay has as its system MDA-MB-231. The experiment in a line: Antiproliferative activity against human MDA-MB-231 cells incubated for 48 hrs by MTT assay. In kind it is functional, cell-based. As to conditions: MDA-MB-231, 48 h. Background: Tetrazolium dyes change colour on reduction, which living cells bring about.
Assay [3] deals with HeLa. The experiment in a line: Induction of apoptosis in human HeLa cells assessed as necrotic cells level at 100 nM incubated for 48 hrs by Annexin-V/FITC and propidium iodide staining based flow cytometry (reference value: 0.03%). In kind it is functional.
The subject of assay [4] is HeLa. In words: Induction of apoptosis in human HeLa cells assessed as early apoptotic cells level at 500 nM incubated for 48 hrs by Annexin-V/FITC and propidium iodide staining based flow cytometry (reference value: 0.16%). In kind it is functional.
The next assay has as its system HepG2. The experiment in a line: Antiproliferative activity against human HepG2 cells incubated for 48 hrs by MTT assay. In kind it is functional, cell-based. Conditions: HepG2, 48 h.
Assay [5] has as its system HeLa. The experiment in a line: Induction of apoptosis in human HeLa cells assessed as early apoptotic cells level at 100 nM incubated for 72 hrs by Annexin-V/FITC and propidium iodide staining based flow cytometry (reference value: 0.16%). The assay is classed as functional.
The subject of assay [6] is HeLa. The experiment in a line: Inhibition of tubulin polymerization in human HeLa cells assessed as morphological changes by measuring microtubule organisation derangement at 0.05 uM incubated for 24 hrs by laser scanning confocal microscopy. The assay is classed as functional, cell-based.
The subject of assay [7] is HeLa. The experiment in a line: Induction of mitochondrial transmembrane potential loss in human HeLa cells assessed as JC1 dye aggregates level at 100 nM incubated for 24 hrs by JC1 staining based flow cytometry (reference value: 95.85%). In kind it is functional.
Another assay deals with A549. In words: Antiproliferative activity against human A549 cells incubated for 48 hrs by MTT assay. As to conditions: A549, 48 h. The assay is classed as functional, cell-based.
The subject of assay [8] is HeLa. In words: Antiproliferative activity against human HeLa cells incubated for 48 hrs by MTT assay. The assay is classed as functional, cell-based.
Assay [9] concerns HeLa. The experiment in a line: Induction of apoptosis in human HeLa cells assessed as necrotic cells level at 500 nM incubated for 72 hrs by Annexin-V/FITC and propidium iodide staining based flow cytometry (reference value: 0.03%). The assay is classed as functional.
In assay [10] the test system is HeLa. The experiment in a line: Induction of mitochondrial transmembrane potential loss in human HeLa cells assessed as JC1 dye monomers level at 500 nM incubated for 24 hrs by JC1 staining based flow cytometry (reference value: 4.12%). In kind it is functional.
The nature of assay [11]: Inhibition of porcine brain tubulin polymerization measured every 60 secs for 90 mins by DAPI dye based fluorescence assay. Also noted: species or system Sus scrofa.
The test system of assay [12] is HeLa. The experiment in a line: Induction of cell cycle arrest in human HeLa cells assessed as induction of disappearance of G2/M phase at 100 nM incubated for 48 hrs by propidium iodide staining based flow cytometry. The assay is classed as functional.

Calls of active or inactive are those of the source. No cut-off for these calls is given here.

Results on one compound are retold here after ChEMBL document CHEMBL4190378, “Synthesis and evaluation of new 2-chloro-4-aminopyrimidine and 2,6-dimethyl-4-aminopyrimidine derivatives as tubulin polymerization inhibitors” (Bioorg Med Chem Lett, 2018).

For orientation: IC50 means the concentration that gives 50% inhibition. Low readings indicate higher potency, high ones lower potency.

Regarding `COc1ccc(N(C)c2cc(C)nc(C)n2)cc1O`, the Activity turned out to be 10.44% in the assay on HeLa [1]; 11.77% with HeLa [2]; 0.07% in the assay with HeLa [3]; 69.81% with HeLa [4]; 21.09% in the assay with HeLa [5]; 70.71% in the assay on HeLa [7]. For the same compound, the Activity in the assay on HeLa [9] turned out to be 3.54%; in the assay with HeLa [10], 48.26%. Further, the IC50 in the assay on MDA-MB-231 came out at 1100 nM; in the assay on HepG2, 112 nM; with A549, 113 nM; in the assay with HeLa [8], 93 nM; in assay [11] it was 5810 nM. Further, the inhibition entry with HeLa [6] was “Active”. Moreover, the result in the assay with HeLa [12] was Active.
